Experimental data from PubChem BioAssay (NCI).
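Cells were grown in 96-well plates and exposed to each compound for 48 hours at five concentrations; endpoints were interpolated linearly between bracketing concentrations, or set to the highest concentration if not reached. GI50 is the concentration that inhibits growth by half. TGI marks complete inhibition of growth.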

Columns and labels:
Test in all cases: NCI-60 cell line screen, 48 h
HOP-92 NSCLC = test system: HOP-92 NSCLC
NCI-H460 lung = test system: NCI-H460 lung
MDA-MB-231 breast = test system: MDA-MB-231 breast
T-47D breast = test system: T-47D breast
EKVX NSCLC = test system: EKVX NSCLC
HCC-2998 colon = test system: HCC-2998 colon
BT-549 breast = test system: BT-549 breast

Structure (SMILES) | TGI (HOP-92 NSCLC) [µM] | TGI (NCI-H460 lung) [µM] | TGI (MDA-MB-231 breast) [µM] | TGI (T-47D breast) [µM] | TGI (EKVX NSCLC) [µM] | GI50 (HOP-92 NSCLC) [µM] | GI50 (NCI-H460 lung) [µM] | GI50 (MDA-MB-231 breast) [µM] | GI50 (HCC-2998 colon) [µM] | TGI (HCC-2998 colon) [µM] | GI50 (EKVX NSCLC) [µM] | GI50 (BT-549 breast) [µM] | TGI (BT-549 breast) [µM] | GI50 (T-47D breast) [µM]
O=c1c(Cl)c(Cl)c(=O)c2sc3cc(Cl)ccc3[nH]c1=2 | 33.4 | > 100 | 7.71 | > 100 | 28.7 |  |  |  |  |  |  |  |  | 
CC1(CCC(=O)OC2CCCCC2)OCCO1 | > 100 | > 100 | > 100 | > 100 | > 100 |  |  |  |  |  |  |  |  | 
C=C1CCC2C(C)(COC(=O)CC)C(OC(=O)CC)CCC2(C)C1C/C=C1/C(=O)OCC1OC(=O)CC (stereo not drawn) | 7.15 | 3.59 | 5.19 |  | 22.1 | 3.03 | 1.98 | 2.31 | 4.25 | 13.9 | 7.96 |  |  | 
O=Cc1ccc(-c2ccc(-c3nc4ccccc4o3)cc2)o1 |  | > 100 | 61.6 | > 100 | > 100 |  | 39.6 | 21 | 28.6 | 76.4 | 38.7 | 35.4 | > 100 | 34.8
CN(Cc1cc(Cl)cc(Cl)c1)CC(C(=O)c1ccccc1)c1ccccc1 (stereo not drawn) | > 91.3 | > 100 | 23.5 | 8.68 | 57.6 |  |  |  |  |  |  |  | 17.6 | 
COc1cccc(/C=C/C(=O)c2ccc(Cl)cc2Cl)c1 | 9.44 | 40.2 | 15.9 |  | 25.8 | 0.0134 | 11.9 | 8.11 |  |  | 13.5 | 11 | 22.4 | 
COC(=O)Cc1ccc(Oc2cnc3cc(F)c(F)cc3n2)cc1 | > 100 | > 100 | > 100 |  | > 100 | > 100 | > 100 | > 100 |  |  | 94.3 | > 100 | > 100 | 
N#CCN/C=C\C(=O)c1ccc(Cl)cc1 |  | > 100 | > 100 | > 100 |  |  | 42.1 | 31.8 |  |  |  |  |  | 33.9
CCCCCCCCCCCCCCCCCC(=O)OCC(COC(=O)CCCN)OC(=O)CCCN (stereo not drawn) | 26.6 | 30.7 | 28.2 | 40 | 53.9 |  |  |  |  | 35.9 |  |  |  | 
COc1ccc(OC)c(-c2cc(-c3ccc(Cl)cc3)nn2-c2ccc(S(=O)(=O)NC(C)=O)cc2)c1 | 33.2 | > 100 |  | 36.1 | 28 | 10.2 | 29.3 |  | 1.71 | 6.93 | 14.3 | 4.26 | 14.7 | 13.1
COc1cccc(NC(=O)c2sc3nc4c(cc3c2N)C(=O)CCC4)c1 | 26.8 | > 100 | 7.59 |  |  | 0.0482 | 0.0953 | 0.209 | 0.279 | > 100 |  | 0.282 | > 90.5 | 
C=C(Nc1ccc([N+](=O)[O-])cc1[N+](=O)[O-])c1c/c(=N\NC(N)=S)c2ccccc2o1 | > 100 | > 100 | > 100 |  | > 100 |  |  |  |  | > 100 |  |  | > 100 | 
CCn1c(-c2cc3ccccc3cc2O)nn(C(=O)c2c(Cl)cccc2Cl)c1=S | > 50 | > 50 | > 50 | > 50 | > 50 | > 50 | > 50 | 44.4 |  |  | > 50 | 15.6 | 36.7 | 21
CCC(CNc1cc(OC)cc2cccnc12)NC1CCCCC1 (stereo not drawn) |  | 41 | > 100 | 64.3 | > 100 |  | 16.8 | 40.7 | 19.3 | 41.4 | 40.1 |  |  | 17.2
COc1cc(CNc2ccccc2C(=O)N2CCN(C(=O)c3cc(-c4cc(OC)c(OC)c(OC)c4)n4nc(-c5ccccc5)cc4n3)CC2)cc(OC)c1OC |  | > 100 | 67.8 |  | > 100 |  | 3.32 | 7.02 | 5.8 | > 100 | 4.96 | 3.27 | 49.1 | 
CC(=O)[CH-]C(=O)c1ccccc1.CC(=O)[CH-]C(=O)c1ccccc1.CCOCC[O-].CCOCC[O-].[Ti+4] |  | 43.4 |  |  | 96.4 |  | 18.8 |  | 18.4 | 43.5 | 38.4 |  |  | 
COc1ccc(/C=N\Nc2ccc([N+](=O)[O-])cn2)cc1OC |  |  | > 100 |  | > 100 |  |  | 6.82 | > 100 | > 100 | > 100 | > 100 | > 100 | 
CC(=O)On1c(-c2ccccc2-c2nc3ccccc3n2OC(C)=O)nc2ccccc21 |  |  | > 100 | > 100 |  |  |  |  |  | > 100 |  |  | > 100 | 
O=C(OCc1ncc(-c2ccc(C(F)(F)F)cc2)c(NC2CCCCCC2)n1)c1c(F)c(F)c(F)c(F)c1F |  | 40.1 | 23.2 | 3.99 |  |  | 17.3 | 9.93 | 16.7 | 32.7 |  | 9 | 27.1 | 1.97
